7 molecules from PubChem BioAssay (NCI) can be followed below.

Some test systems named below: BT-549 breast; CAKI-1 renal; CCRF-CEM leukemia; COLO 205 colon; HCT-15 colon; K-562 leukemia; MCF7 breast; MDA-MB-231 breast; MDA-MB-435; MOLT-4 leukemia; NCI-H23 lung; OVCAR-4 ovarian; OVCAR-5 ovarian; OVCAR-8 ovarian; PC-3 prostate; SNB-75 CNS; T-47D breast; U251 CNS; UACC-257 melanoma.
What all share (assay): NCI tumour cell line growth inhibition, 48 h

SMILES strings stand for the structures.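 Cells were grown in 96-well plates and exposed to each compound for 48 hours at five concentrations; endpoints were interpolated linearly between bracketing concentrations, or set to the highest concentration if not reached. At the TGI there is no net growth.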

Consider `Cc1ccc2c(c1)C(=O)c1ccc(C)nc1C2=O`, for which the TGI in the assay with BT-549 breast was 92.8 µM; in the assay with CAKI-1 renal it was above 100 µM; in the assay with CCRF-CEM leukemia it was above 100 µM; in the assay on COLO 205 colon, above 100 µM; in the assay on HCT-15 colon, 39 µM; with K-562 leukemia, above 100 µM. Besides, the TGI in the assay with MCF7 breast was above 100 µM; in the assay on MDA-MB-231 breast, above 100 µM; in the assay with MDA-MB-435 it was 37.6 µM; with MOLT-4 leukemia it was above 100 µM; in the assay on NCI-H23 lung, 58.9 µM; with OVCAR-4 ovarian it was 83.7 µM. Moreover, the TGI in the assay on OVCAR-5 ovarian, in the assay on OVCAR-8 ovarian, in the assay on PC-3 prostate, in the assay on SNB-75 CNS, in the assay with T-47D breast and with U251 CNS was above 100 µM each time. Further, the TGI in the assay on UACC-257 melanoma amounted to 48.9 µM.
Regarding `O=Cc1cc(O)ccc1Br`, the TGI in the assay with BT-549 breast is above 83.4 µM; in the assay with CAKI-1 renal, 48.1 µM; in the assay on CCRF-CEM leukemia it was 15.5 µM; with COLO 205 colon, above 100 µM; in the assay on HCT-15 colon it was 40.7 µM; in the assay with K-562 leukemia, 19.2 µM. Moreover, the TGI in the assay with MCF7 breast is above 100 µM; with MDA-MB-231 breast, above 100 µM; in the assay with MDA-MB-435, 9.77 µM; in the assay on MOLT-4 leukemia, 43.8 µM; in the assay on NCI-H23 lung, 71 µM; in the assay on OVCAR-4 ovarian it was above 65.7 µM. Further, the TGI is above 100 µM with OVCAR-5 ovarian; 53.7 µM with OVCAR-8 ovarian; above 78.4 µM in the assay on PC-3 prostate; above 100 µM in the assay on SNB-75 CNS; above 100 µM in the assay on T-47D breast; 41.3 µM with U251 CNS. The molecule also yielded a TGI in the assay on UACC-257 melanoma above 91.1 µM.
On to `CSc1nc2ccccc2c(=O)n1-c1cccc(C)c1`, for which the TGI in the assay on BT-549 breast, in the assay on CAKI-1 renal, in the assay on CCRF-CEM leukemia, in the assay with COLO 205 colon, in the assay on HCT-15 colon and in the assay with K-562 leukemia was above 100 µM in each case. For the same molecule, the TGI is above 100 µM with MCF7 breast; above 100 µM with MDA-MB-231 breast; above 100 µM in the assay on MDA-MB-435; 98.2 µM in the assay on MOLT-4 leukemia; above 100 µM in the assay on NCI-H23 lung; above 100 µM with OVCAR-4 ovarian. For the same molecule, the TGI in the assay on OVCAR-5 ovarian, in the assay on OVCAR-8 ovarian, with PC-3 prostate, with SNB-75 CNS, in the assay on T-47D breast and with U251 CNS was above 100 µM in each case. The TGI in the assay on UACC-257 melanoma was above 100 µM.
On to `CC(=O)NC1C(OCc2ccccc2)OC(CO)C(O)C1OCC(=O)NC(C)C(=O)NC(CCC(=O)Nc1ccc2c(c1)CN1C(=O)c3ccccc3C1=N2)C(N)=O` (stereo not drawn), for which the TGI in the assay on BT-549 breast, with CAKI-1 renal, with CCRF-CEM leukemia, in the assay with COLO 205 colon, in the assay on HCT-15 colon and in the assay on K-562 leukemia was above 100 µM throughout. The TGI in the assay with MCF7 breast, in the assay on MDA-MB-231 breast, in the assay with MDA-MB-435, with MOLT-4 leukemia, in the assay with NCI-H23 lung and with OVCAR-4 ovarian was above 100 µM throughout. For the same molecule, the TGI with OVCAR-5 ovarian, in the assay on OVCAR-8 ovarian, in the assay on PC-3 prostate, in the assay with SNB-75 CNS, with T-47D breast and in the assay with U251 CNS was above 100 µM each time. Further, the TGI in the assay on UACC-257 melanoma was above 100 µM.
`O=C(O)C1CCCCN1CCc1c[nH]c2ccccc12` (stereo not drawn): the TGI with BT-549 breast, in the assay on CAKI-1 renal, in the assay on CCRF-CEM leukemia, with COLO 205 colon, in the assay on HCT-15 colon and in the assay on K-562 leukemia was above 100 µM throughout. The TGI in the assay with MCF7 breast, in the assay with MDA-MB-231 breast, in the assay on MDA-MB-435, in the assay on MOLT-4 leukemia, in the assay on NCI-H23 lung and in the assay with OVCAR-4 ovarian was above 100 µM each time. The TGI with OVCAR-5 ovarian, in the assay on OVCAR-8 ovarian, with PC-3 prostate, in the assay on SNB-75 CNS, with T-47D breast and in the assay on U251 CNS was above 100 µM in each case. This molecule returned a TGI in the assay on UACC-257 melanoma above 100 µM.
In the case of `[N-]=[N+]=NC1=C(N=[N+]=[N-])c2cccc3cccc(c23)C1=O`, the TGI with BT-549 breast, in the assay with CAKI-1 renal, with CCRF-CEM leukemia, in the assay with COLO 205 colon, with HCT-15 colon and with K-562 leukemia was above 100 µM in each case. The TGI in the assay on MCF7 breast, with MDA-MB-231 breast, in the assay on MDA-MB-435, in the assay on MOLT-4 leukemia, in the assay on NCI-H23 lung and in the assay with OVCAR-4 ovarian was above 100 µM in each case. In addition, the TGI in the assay on OVCAR-5 ovarian, in the assay with OVCAR-8 ovarian, with PC-3 prostate, with SNB-75 CNS, in the assay on T-47D breast and in the assay with U251 CNS was above 100 µM each time. Further, the TGI in the assay on UACC-257 melanoma is above 100 µM.
For the molecule `CC(=O)Nc1ccccc1S(=O)(=O)c1c(-c2c(C)c(Cl)c(C)c(Cl)c2C)noc1C`, the TGI in the assay on BT-549 breast was above 100 µM; in the assay on CAKI-1 renal it was 79.3 µM; with CCRF-CEM leukemia, 71.2 µM; in the assay on COLO 205 colon it was above 100 µM; in the assay on HCT-15 colon it was above 100 µM; with K-562 leukemia, above 100 µM. Moreover, the TGI in the assay with MCF7 breast is above 100 µM; in the assay on MDA-MB-231 breast, 88 µM; in the assay with MDA-MB-435 it was above 100 µM; in the assay with MOLT-4 leukemia, above 100 µM; in the assay on NCI-H23 lung it was above 100 µM; in the assay with OVCAR-4 ovarian it was 35.6 µM. Further, the TGI was above 100 µM in the assay on OVCAR-5 ovarian; above 100 µM in the assay with OVCAR-8 ovarian; above 100 µM with PC-3 prostate; 34.6 µM with SNB-75 CNS; above 100 µM in the assay with T-47D breast; 95.5 µM in the assay on U251 CNS. The molecule also had a TGI with UACC-257 melanoma above 100 µM.
